In patent publication US10329268B2, “Processes for preparing medicaments for the treatment of cardiovascular diseases and intermediates for use therein” (Bial-Portela & CA., S.A., priority 2013, dated 2019):

How the values were obtained:
dopamine-β-hydroxylase = target: T1, dopamine-β-hydroxylase (Homo sapiens, UniProt P09172); details: background statement, WO2004/033447 / WO2008/136695; cited from earlier work
T1 sequence (P09172 1-617): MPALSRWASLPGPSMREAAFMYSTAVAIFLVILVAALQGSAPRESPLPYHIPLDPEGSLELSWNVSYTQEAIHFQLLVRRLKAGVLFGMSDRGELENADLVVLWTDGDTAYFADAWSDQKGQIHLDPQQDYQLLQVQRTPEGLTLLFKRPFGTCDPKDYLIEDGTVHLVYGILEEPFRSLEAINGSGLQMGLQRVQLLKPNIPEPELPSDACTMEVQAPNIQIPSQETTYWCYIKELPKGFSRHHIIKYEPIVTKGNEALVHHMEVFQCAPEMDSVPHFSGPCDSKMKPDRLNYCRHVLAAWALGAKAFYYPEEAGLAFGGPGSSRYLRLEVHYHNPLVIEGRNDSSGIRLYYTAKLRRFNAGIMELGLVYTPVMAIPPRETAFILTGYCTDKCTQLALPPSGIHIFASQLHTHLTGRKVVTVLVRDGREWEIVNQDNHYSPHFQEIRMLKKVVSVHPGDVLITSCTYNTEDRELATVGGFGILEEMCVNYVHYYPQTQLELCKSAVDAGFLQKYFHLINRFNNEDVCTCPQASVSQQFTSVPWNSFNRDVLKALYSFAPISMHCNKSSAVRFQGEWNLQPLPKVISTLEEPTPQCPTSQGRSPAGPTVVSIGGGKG

[1] = background statement; cited from earlier work
[2] = Solubility in organic solvents according to Eur. Ph. Chapter 5.11; type: physicochemical
Procedure: The solubility of non-micronized and micronized (R)-5-(2-(benzylamino)ethyl)-1-(6,8-difluorochroman-3-yl)-1H-imidazole-2(3H)-thione in several organic solvents was determined.
Solubility Solubility was evaluated according to Eur. Ph. Chapter 5.11 at room temperature.
The following descriptions are used to describe the degree of solubility: […]

[3] = Aqueous solubility at 37° C. in solutions of pH 1.2 to 9.0; type: physicochemical
Procedure: The aqueous solubility of (R)-5-(2-(benzylamino)ethyl)-1-(6,8-difluorochroman-3-yl)-1H-imidazole-2(3H)-thione was determined in triplicate at 37° C. Aqueous solutions of HCl (pH 1.2, 2.0, 3.0), potassium chloride (pH 1.2, 2.0), acid phthalate (pH 3.0), acetate (pH 4.5, 5.5), phosphate (pH 7.4) and boric acid (pH 9.0) were tested.

Question: For `Cl.NCCc1c[nH]c(=S)n1[C@H]1COc2c(F)cc(F)cc2C1` [Compound 1, (R)-5-(2-Aminoethyl)-1-(6,8-difluorochroman-3-yl)-1,3-dihydroimidazole-2-thione hydrochloride], which “Inhibition of dopamine-β-hydroxylase (DβH)” value (dopamine-β-hydroxylase) is on record?
Answer: potent

Question: And the Toxicity [1]?
Answer: non-toxic

Question: Which “Solubility in polar organic aprotic solvents” value ([2]; all of the polar organic aprotic solvents tested) does the source give for `Fc1cc(F)c2c(c1)C[C@@H](n1c(CCNCc3ccccc3)c[nH]c1=S)CO2` [(R)-5-(2-(benzylamino)ethyl)-1-(6,8-difluorochroman-3-yl)-1H-imidazole-2(3H)-thione] here?
Answer: either sparingly soluble, slightly soluble or very slightly soluble

Question: And the Solubility description ([2]; micronized particles, 1,4-Dioxane, room temperature)?
Answer: Very slightly soluble (from 1000 to 10,000 parts)

Question: What about the Solubility description ([2]; micronized particles, 2-propanol, room temperature) of the same compound?
Answer: Insoluble

Question: And the Solubility description ([2]; micronized particles, Absolute ethanol, room temperature)?
Answer: Very slightly soluble (from 1000 to 10,000 parts)

Question: And the Solubility description ([2]; micronized particles, Acetone, room temperature)?
Answer: Slightly soluble (from 100 to 1000 parts)

Question: What about the Solubility description ([2]; micronized particles, Acetonitrile, room temperature) of the same compound?
Answer: Very slightly soluble (from 1000 to 10,000 parts)

Question: And the Solubility description ([2]; micronized particles, Chloroform, room temperature)?
Answer: Slightly soluble (from 100 to 1000 parts)

Question: And the Solubility description ([2]; micronized particles, Cyclohexane, room temperature)?
Answer: Insoluble

Question: And the Solubility description ([2]; micronized particles, DMSO, room temperature)?
Answer: Slightly soluble (from 100 to 1000 parts)

Question: What about the Solubility description ([2]; micronized particles, Dichloromethane, room temperature) of the same compound?
Answer: Very slightly soluble (from 1000 to 10,000 parts)

Question: What about the Solubility description ([2]; micronized particles, Dimethylformamide, room temperature) of the same compound?
Answer: Sparingly soluble (from 30 to 100 parts)

Question: And the Solubility description ([2]; micronized particles, Ethyl acetate, room temperature)?
Answer: Very slightly soluble (from 1000 to 10,000 parts)

Question: And the Solubility description ([2]; micronized particles, Iso-octane (2,2,4-trimethylpentane), room temperature)?
Answer: Practically insoluble (greater than or equal to 10,000 parts)

Question: What about the Solubility description ([2]; micronized particles, Methanol or acetonitrile acidified with 0.1% formic acid or TFA, room temperature) of the same compound?
Answer: Slightly soluble (from 100 to 1000 parts)

Question: What about the Solubility description ([2]; micronized particles, Methanol, room temperature) of the same compound?
Answer: Very slightly soluble (from 1000 to 10,000 parts)

Question: What about the Solubility description ([2]; micronized particles, Methyl ethyl ketone, room temperature) of the same compound?
Answer: Slightly soluble (from 100 to 1000 parts)

Question: What about the Solubility description ([2]; micronized particles, N,N-methylpirrolidone, room temperature) of the same compound?
Answer: Sparingly soluble (from 30 to 100 parts)

Question: What about the Solubility description ([2]; micronized particles, Tetrahydrofuran, room temperature) of the same compound?
Answer: Sparingly soluble (from 30 to 100 parts)

Question: What about the “Solubility in polar organic solvents” value ([2]; most of the polar organic solvents tested) of the same compound?
Answer: mostly either sparingly soluble, slightly soluble or very slightly soluble

Question: And the Solubility description ([2]; non-micronized particles, 1,4-Dioxane, room temperature)?
Answer: Slightly soluble (from 100 to 1000 parts)

Question: And the Solubility description ([2]; non-micronized particles, 2-propanol, room temperature)?
Answer: Insoluble

Question: And the Solubility description ([2]; non-micronized particles, Absolute ethanol, room temperature)?
Answer: Practically insoluble (greater than or equal to 10,000 parts)

Question: What about the Solubility description ([2]; non-micronized particles, Acetone, room temperature) of the same compound?
Answer: Slightly soluble (from 100 to 1000 parts)

Question: And the Solubility description ([2]; non-micronized particles, Acetonitrile, room temperature)?
Answer: Very slightly soluble (from 1000 to 10,000 parts)

Question: What about the Solubility description ([2]; non-micronized particles, Chloroform, room temperature) of the same compound?
Answer: Very slightly soluble (from 1000 to 10,000 parts)

Question: And the Solubility description ([2]; non-micronized particles, Cyclohexane, room temperature)?
Answer: Insoluble

Question: What about the Solubility description ([2]; non-micronized particles, DMSO, room temperature) of the same compound?
Answer: Sparingly soluble (from 30 to 100 parts)

Question: And the Solubility description ([2]; non-micronized particles, Dichloromethane, room temperature)?
Answer: Slightly soluble (from 100 to 1000 parts)

Question: What about the Solubility description ([2]; non-micronized particles, Dimethylformamide, room temperature) of the same compound?
Answer: Sparingly soluble (from 30 to 100 parts)

Question: What about the Solubility description ([2]; non-micronized particles, Ethyl acetate, room temperature) of the same compound?
Answer: Very slightly soluble (from 1000 to 10,000 parts)

Question: And the Solubility description ([2]; non-micronized particles, Hexafluoroisopropanol, room temperature)?
Answer: Sparingly soluble (from 30 to 100 parts)

Question: What about the Solubility description ([2]; non-micronized particles, Iso-octane (2,2,4-trimethylpentane), room temperature) of the same compound?
Answer: Insoluble

Question: What about the Solubility description ([2]; non-micronized particles, Isopropyl acetate, room temperature) of the same compound?
Answer: Very slightly soluble (from 1000 to 10,000 parts)

Question: What about the Solubility description ([2]; non-micronized particles, Methanol or acetonitrile acidified with 0.1% formic acid or TFA, room temperature) of the same compound?
Answer: Sparingly soluble (from 30 to 100 parts)

Question: And the Solubility description ([2]; non-micronized particles, Methanol, room temperature)?
Answer: Very slightly soluble (from 1000 to 10,000 parts)

Question: And the Solubility description ([2]; non-micronized particles, Methyl ethyl ketone, room temperature)?
Answer: Slightly soluble (from 100 to 1000 parts)

Question: What about the Solubility description ([2]; non-micronized particles, N,N-methylpirrolidone, room temperature) of the same compound?
Answer: Sparingly soluble (from 30 to 100 parts)

Question: What about the Solubility description ([2]; non-micronized particles, Tetrahydrofuran, room temperature) of the same compound?
Answer: Sparingly soluble (from 30 to 100 parts)

Question: And the Solubility description ([2]; non-micronized particles, Toluene, room temperature)?
Answer: Very slightly soluble (from 1000 to 10,000 parts)

Question: What about the Solubility description ([2]; non-micronized particles, Trifluoroethanol, room temperature) of the same compound?
Answer: Slightly soluble (from 100 to 1000 parts)

Question: And the “Change in the solubility profile, before versus after micronization” value ([2]; organic solvents, room temperature)?
Answer: no overall significant changes

Question: And the “Medium of maximum aqueous solubility” value [3]?
Answer: HCl 0.01 (pH 2.0)

Question: And the “Aqueous solubility after micronization relative to non-micronized” value ([3]; HCl 0.01 (pH 2.0))?
Answer: lower

Question: What about the “Aqueous solubility as a function of pH” value ([3]; pH 1.2 to 9.0, both non-micronized and micronized) of the same compound?
Answer: decreases with the increase of pH
